Three compounds from patent US5391800A, “Method for inhibition of cell motility by sphingosine-1-phosphate, its derivatives and mimetics and method of synthesizing sphingosine-1-phosphate and its derivatives” (The Biomembrane Institute, priority 1993, dated 1995) can be followed below.

Data set [1] has as its system B16/F10 melanoma cells. As to the kind of experiment: Phagokinetic activity of B16/F10 melanoma cells on gold sol-coated plates. To be noted: for Cleared area: mean ± S.D., n > 50; for Area cleared by B16/F10 tumor cells: SPN-1-P at 1.0 or 0.1 μM. The format is cell-based, mouse. How it is done: Phagokinetic activity is measured by the ability of cells to ingest foreign particles while moving. […] A uniform coating of gold particles is prepared on glass coverslips precoated with bovine serum albumin, and coverslips are rinsed repeatedly to remove non-adhering or loosely-adhering gold particles. Freshly-prepared neutrophils or tumor cells detached from culture are placed in a Petri dish containing the gold sol-coated plate, and incubated for about 2 hours (for human neutrophils) or about 18 hours (for tumor cells). The coverslips are fixed for 1 hour in a 4% formaldehyde solution in phosphate-buffered saline (PBS) and mounted on microscope slides. The phagokinetic tracks are observed on a television connected to a light microscope (Nikon, Tokyo, Japan). Tracks on the television are transferred to translucent sheets, which are then photocopied. Phagokinetic activity is quantitated by cutting and weighing the swept area in the copy.
A uniform coating of gold particles was prepared on glass coverslips precoated with bovine serum albumin, and the coverslips were rinsed repeatedly to remove non-adhering or loosely-adhering gold particles. Freshly-prepared neutrophils or tumor cells detached from culture were placed in a Petri dish containing the gold sol-coated plate, and incubated for 2 hours (for human neutrophils) or 18 hours (for tumor cells). The coverslips were fixed for 1 hour in 4% formaldehyde solution in phosphate-buffered saline (PBS) and mounted on microscope slides. The phagokinetic tracks were observed on a television connected to a light microscope (Nikon, Tokyo, Japan). Tracks on the television were transferred to translucent sheets, which were then photocopied. Phagokinetic activity was quantitated by cutting and weighing the swept area in the copy.

Data set [2] relates to human neutrophils. Put plainly: Phagokinetic activity of human neutrophils on gold sol-coated plates. The format is cell-based. To be noted: for Cleared area: 2 hours, mean ± S.D., control 6.3 ± 2.3; for Reduction in phagokinetic activity of human neutrophils: Table VII, in words. The procedure: Phagokinetic activity is measured by the ability of cells to ingest foreign particles while moving. Cell motility can be estimated as the area of a phagokinetic track on gold sol particle-coated plates as previously described {Albrecht-Buehler, Cell, 11:395 (1977)}. A uniform coating of gold particles is prepared on glass coverslips precoated with bovine serum albumin, and coverslips are rinsed repeatedly to remove non-adhering or loosely-adhering gold particles. Freshly-prepared neutrophils or tumor cells detached from culture are placed in a Petri dish containing the gold sol-coated plate, and incubated for about 2 hours (for human neutrophils) or about 18 hours (for tumor cells). The coverslips are fixed for 1 hour in a 4% formaldehyde solution in phosphate-buffered saline (PBS) and mounted on microscope slides. The phagokinetic tracks are observed on a television connected to a light microscope (Nikon, Tokyo, Japan). Tracks on the television are transferred to translucent sheets, which are then photocopied. Phagokinetic activity is quantitated by cutting and weighing the swept area in the copy.
Cell motility was estimated as the area of phagokinetic track on gold sol particle-coated plates as previously described {Albrecht-Buehler, Cell, 11:395 (1977)}. A uniform coating of gold particles was prepared on glass coverslips precoated with bovine serum albumin, and the coverslips were rinsed repeatedly to remove non-adhering or loosely-adhering gold particles. Freshly-prepared neutrophils or tumor cells detached from culture were placed in a Petri dish containing the gold sol-coated plate, and incubated for 2 hours (for human neutrophils) or 18 hours (for tumor cells). The coverslips were fixed for 1 hour in 4% formaldehyde solution in phosphate-buffered saline (PBS) and mounted on microscope slides. The phagokinetic tracks were observed on a television connected to a light microscope (Nikon, Tokyo, Japan). Tracks on the television were transferred to translucent sheets, which were then photocopied. Phagokinetic activity was quantitated by cutting and weighing the swept area in the copy.
**mean ± S.D. Freshlyprepared neutrophils (1 × 10^4
cell/plate) were seeded on a coverslip precoated with gold sol particles
in the presence or absence of test compound. 2 hours later, incubation wa
terminated by adding 200 μl of 10% formaldehyde and the cleared area
was estimated as described in the text.

The subject of data set [3] is B16/F1 cells. Put plainly: Uptake and metabolic conversion of 3H-SPN and 14C-TMS in B16/F1 cells. The format is in vitro ADME, mouse. To be noted: for Incorporation into B16/F1 cells: 3H-labeled SPN, 14C-labeled TMS; for Metabolic conversion: B16/F1 cells. An excerpt: FIGS. 12A and 12B depict the time-course uptake of ^3 H-SPN (FIG. 12A) and ^14 C-TMS (FIG. 12B) by B16/F1 cells. The ordinate represents % radioactivity taken up by B16/F1 cells and the abscissa represents time in hours.
FIGS. 13A-13C depict the time-course changes in labeling of various SPN derivatives after addition of ^3 H-SPN to B16/F1 cells:
FIG. 13A: thin-layer chromatography (TLC) of lipids separated from Folch's lower phase;
FIG. 13B: TLC of lipids separated from Folch's upper phase followed by incubation with ^14 C-TMS and extraction;
FIG. 13C: TLC of lipids separated from Folch's upper phase.
Lane 1, 0 minute. Lane 2, 10 minutes. Lane 3, 30 minutes. Lane 4, 1 hour. Lane 5, 2 hours. Lane 6, 4 hours. Lane 7, 20 hours. CER represents ceramide; CMH represents ceramide monohexoside; PE represents phosphatidyl-ethanolamine; SM represents sphingomyelin; TMS represents N,N,N-trimethylsphingosine; SPN represents sphingosine; SPN-1-P represents sphingosine-1-phosphate; and ORG represents the origin.
In addition, the uptake and metabolic conversion of SPN vs. TMS was investigated. […] Rapid conversion of SPN into sphingosine-1-phosphate is clearly indicated by the appearance of bands corresponding to SPN-1-P prior to conversion into Cer. The SPN-1-P peak appeared after 10 minutes incubation, whereas the Cer peak appeared after 1 hour incubation.

Data set [4] in a line: Toxicity to human neutrophils, trypan blue exclusion. The format is cell-based. To be noted: human, neutrophils; neutrophil; 45 μM; 1 hour incubation; control 99; read-out: Cell viability (%). How it is done: (§1) Effects of SPN derivatives on protein kinase C activity and cell growth of B16/F1 cells was also investigated. […] Toxicity of these compounds to B16/F1 cells and human neutrophils was also examined using a trypan blue exclusion assay after 1 hour incubation with the compounds.

The test system of data set [5] is human neutrophils. Described as above. The format is cell-based. To be noted: 45-50 μM; human neutrophils; 1 hour. How it is done: as §1
Data set [6] is described as follows: Toxicity to B16/F1 melanoma cells, trypan blue exclusion. The format is cell-based, mouse. Particulars: mouse, b16/f1 cells; B16/F1; 50 μM; 1 hour incubation; control 99; read-out: Cell viability (%). The procedure:
as §1

The subject of data set [7] is B16/F1 melanoma cells. The data set is described as above. The format is cell-based, mouse. To be noted: for Toxicity: 45-50 μM, B16/F1 cells, 1 hour. How it is done: as §1
Where [8] appears, read: Mus musculus, B16-F10, 1.0 μM, 18 hours, read-out: % of control (CM+) value.
[9] abbreviates: 3H-SPN, in the presence of D-PDMP.

“Also recorded” adds a separate entry of the source.

Take `CCCCCCCCCCCCC/C=C/[C@@H](O)[C@H](CO)[N+](C)(C)C` [TMS, N,N,N-trimethylsphingosine]: in data set [1] (1.0 μM, 18 hours), the “Cleared area less control (CM-) value” is on record as 3.5 × 10^3 μm^2 and the Cleared area is listed as 5.6 ± 2.7 × 10^3 μm^2. Moreover, the activity at 1 µM in data set [1] (setting [8]) is 73%. Moreover, the “Area cleared by B16/F10 tumor cells” value in data set [1] is “reduced the area cleared by tumor cells”. In addition, in data set [2] (0.45 μM), the Cleared area was 5.4 ± 2.7 × 10^3 μm^2. In data set [2] (1.0 μM), the Cleared area is listed as 3.6 ± 1.5 × 10^3 μm^2. Moreover, in data set [2], the “Reduction in phagokinetic activity of human neutrophils” value is “most striking”. Moreover, in data set [3], the “Incorporation into B16/F1 cells” value is “rapidly incorporated” and the “Metabolic conversion” value is given as “unchanged regardless of incubation time; also recorded: cannot be phosphorylated”.
Regarding `CCCCCCCCCCCCC/C=C/[C@@H](O)[C@@H](N)CO` [SPN, sphingosine], in data set [4], the viability at 1 h, 45 µM is 5%. The “Toxicity” value in data set [5] is on record as “very toxic”. Moreover, in data set [1] (1.0 μM, 18 hours), the “Cleared area less control (CM-) value” is 0.4 × 10^3 μm^2 and the Cleared area is recorded as 2.5 ± 1.0 × 10^3 μm^2. In addition, the activity at 1 µM in data set [1] (setting [8]) is 8%. For the same compound, the “Area cleared by B16/F10 tumor cells” value in data set [1] is “reduced the area cleared by tumor cells”. The viability at 1 h, 50 µM in data set [6] came out at 21%. Besides, the “Toxicity” value in data set [7] was “very toxic”. Also, the Cleared area in data set [2] (0.45 μM) is reported as 5.2 ± 2.0 × 10^3 μm^2. Besides, in data set [3] (setting [9]), the “Appearance of Cer peak after incubation with SPN” value is 1 h and the “Appearance of SPN-1-P peak after incubation with SPN” value turned out to be 10 min. In data set [3], the “Incorporation into B16/F1 cells” value is “rapidly incorporated”; the “Metabolic conversion” value is “rapidly converted into SPN-1-P and ceramide; also recorded: can be converted to SPN-1-P”.
Turning to `CCCCCCCCCCCCC/C=C/[C@@H](O)[C@@H](N)COP(=O)(O)O` [SPN-1-P, sphingosine-1-phosphate], in data set [4], the viability at 1 h, 45 µM is 98%. The “Toxicity” value in data set [5] and in data set [7] was “weak toxicity” throughout. The “Cleared area less control (CM-) value” in data set [1] (0.0001 μM, 18 hours) was 3.9 × 10^3 μm^2; in data set [1] (0.01 μM, 18 hours), 2.0 × 10^3 μm^2; in data set [1] (0.1 μM, 18 hours) it was 1.3 × 10^3 μm^2; in data set [1] (1.0 μM, 18 hours) it was 0.3 × 10^3 μm^2. Moreover, the Cleared area was 6.0 ± 2.7 × 10^3 μm^2 in data set [1] (0.0001 μM, 18 hours); 4.1 ± 1.4 × 10^3 μm^2 in data set [1] (0.01 μM, 18 hours); 3.4 ± 1.3 × 10^3 μm^2 in data set [1] (0.1 μM, 18 hours); 2.4 ± 1.1 × 10^3 μm^2 in data set [1] (1.0 μM, 18 hours); 5.5 ± 2.7 × 10^3 μm^2 in data set [2] (0.45 μM); 5.4 ± 2.4 × 10^3 μm^2 in data set [2] (1.0 μM). Moreover, in data set [2] (4.5 μM), the Cleared area was 3.5 ± 1.4 × 10^3 μm^2. Also, in data set [1] (Mus musculus, B16-F10, 0.0001 μM, 18 hours, read-out: % of control (CM+) value), the activity at 0.0001 µM turned out to be 81%. The activity at 0.01 µM in data set [1] (Mus musculus, B16-F10, 0.01 μM, 18 hours, read-out: % of control (CM+) value) came out at 42%. Besides, the activity at 0.1 µM in data set [1] (Mus musculus, B16-F10, 0.1 μM, 18 hours, read-out: % of control (CM+) value) amounted to 27%. For the same compound, the activity at 1 µM in data set [1] (setting [8]) was determined as 6%. Besides, the “Area cleared by B16/F10 tumor cells” value in data set [1] is “greatly reduced”. In addition, the viability at 1 h, 50 µM in data set [6] is 72%. Also, the “Cytotoxicity, comparison” value in data set [7] (concentration not given) is “far less cytotoxic than SPN, DMS, or TMS”. Moreover, in data set [2], the “Reduction in phagokinetic activity of human neutrophils” value is “most striking”.
